# In patent US8895733B2 (Novartis AG, priority 2010, dated 2014):
# pIC50: −log10 of the molar value.
# Biological target: T1, Nav 1.7 (Homo sapiens, UniProt Q15858)
# T1 construct: expressed in transfected cells
# Test: Whole-cell voltage clamp electrophysiology, manual patch clamp (marker b in Table of Examples)
# Format: cell-based
# Details: 10 μM; marker b: Manual patch clamp data
# Text: a.IonWork Quattro data, b=Manual patch clamp data, c=Automated patch clamp data M=Method
# Whole-Cell Voltage Clamp Electrophysiology Assay
# Patch-clamp electrophysiology is considered the gold standard technique for investigation of ion channel function and pharmacology. Using this method, sodium channel currents can be measured in cells, which stably (or transiently) express the sodium channel subtype of interest. Application of compounds during such experiments provides a functional measure of the activity and potency of compounds affecting the ion channel of interest.
# Electrophysiological studies can also be performed using the whole cell configuration of the standard manual patch clamp technique as described in the literature (e.g. Pflugers Arch., 1981, 391(2), 85-100). In this assay, cells that express the voltage-gated sodium channel protein of interest are exposed to the drugs by conventional microperfusion systems, or by a home-built perfusion system. A suitable voltage stimulus protocol is used to activate the voltage-gated sodium channels.
# A suitable voltage stimulus protocol is used to activate voltage-gated sodium channel proteins of interest. A typical stimulus protocol may consist of sweeps of sequential voltage pulses starting from a holding potential (i.e. −65 mV), to a more positive and depolarising test pulse potential (i.e. −10 mV) and finally to a more negative and hyperpolarising potential (i.e. −100 mV). According to the biophysics of the voltage-gated ion channel of interest and interest in channel configuration the voltages and durations of the pulses as well as the overall frequency of sweeps applied might vary. Accordingly, a stimulus protocol was designed to assess compounds due to their potential to block NaV1.7 channels primarily in inactivated state. Selectivity over other voltage-gated sodium channel members was assessed by protocols that reflect the native function of the channels (i.e. heart rate or firing of neurons).
# Electrophysiological studies can also be performed using the whole cell configuration of the standard manual patch clamp technique as described in the literature (e.g. Pflugers Arch., 1981, 391(2), 85-100). In this assay, cells that express the human voltage-gated sodium channel protein of interest are exposed to the drugs by conventional microperfusion systems, or by a home-built perfusion system. A suitable voltage stimulus protocol is used to activate the voltage-gated sodium channels. A suitable voltage stimulus protocol may consist of sequential voltage pulses from a holding potential, each first hyperpolarizing the cell, then depolarizing the channels for a brief period. A particularly suitable holding potential may be a voltage allowing a fraction of channels to remain in an inactivated state, like −60 mV. A suitable hyperpolarizing voltage and duration may be −120 mV for 100 ms, and depolarization voltage and duration may be −20 mV for 25 ms, and a suitable frequency of pulses may be 0.1 Hz, but may also have other parameters. Accordingly, a stimulus protocol was designed to assess compounds due to their potential to block NaV1.7 channels primarily in inactivated state. Selectivity over other voltage-gated sodium channel members was assessed by protocols that reflect the native function of the channels (i.e. heart rate or firing of neurons).
# T1 sequence (Q15858 whole entry): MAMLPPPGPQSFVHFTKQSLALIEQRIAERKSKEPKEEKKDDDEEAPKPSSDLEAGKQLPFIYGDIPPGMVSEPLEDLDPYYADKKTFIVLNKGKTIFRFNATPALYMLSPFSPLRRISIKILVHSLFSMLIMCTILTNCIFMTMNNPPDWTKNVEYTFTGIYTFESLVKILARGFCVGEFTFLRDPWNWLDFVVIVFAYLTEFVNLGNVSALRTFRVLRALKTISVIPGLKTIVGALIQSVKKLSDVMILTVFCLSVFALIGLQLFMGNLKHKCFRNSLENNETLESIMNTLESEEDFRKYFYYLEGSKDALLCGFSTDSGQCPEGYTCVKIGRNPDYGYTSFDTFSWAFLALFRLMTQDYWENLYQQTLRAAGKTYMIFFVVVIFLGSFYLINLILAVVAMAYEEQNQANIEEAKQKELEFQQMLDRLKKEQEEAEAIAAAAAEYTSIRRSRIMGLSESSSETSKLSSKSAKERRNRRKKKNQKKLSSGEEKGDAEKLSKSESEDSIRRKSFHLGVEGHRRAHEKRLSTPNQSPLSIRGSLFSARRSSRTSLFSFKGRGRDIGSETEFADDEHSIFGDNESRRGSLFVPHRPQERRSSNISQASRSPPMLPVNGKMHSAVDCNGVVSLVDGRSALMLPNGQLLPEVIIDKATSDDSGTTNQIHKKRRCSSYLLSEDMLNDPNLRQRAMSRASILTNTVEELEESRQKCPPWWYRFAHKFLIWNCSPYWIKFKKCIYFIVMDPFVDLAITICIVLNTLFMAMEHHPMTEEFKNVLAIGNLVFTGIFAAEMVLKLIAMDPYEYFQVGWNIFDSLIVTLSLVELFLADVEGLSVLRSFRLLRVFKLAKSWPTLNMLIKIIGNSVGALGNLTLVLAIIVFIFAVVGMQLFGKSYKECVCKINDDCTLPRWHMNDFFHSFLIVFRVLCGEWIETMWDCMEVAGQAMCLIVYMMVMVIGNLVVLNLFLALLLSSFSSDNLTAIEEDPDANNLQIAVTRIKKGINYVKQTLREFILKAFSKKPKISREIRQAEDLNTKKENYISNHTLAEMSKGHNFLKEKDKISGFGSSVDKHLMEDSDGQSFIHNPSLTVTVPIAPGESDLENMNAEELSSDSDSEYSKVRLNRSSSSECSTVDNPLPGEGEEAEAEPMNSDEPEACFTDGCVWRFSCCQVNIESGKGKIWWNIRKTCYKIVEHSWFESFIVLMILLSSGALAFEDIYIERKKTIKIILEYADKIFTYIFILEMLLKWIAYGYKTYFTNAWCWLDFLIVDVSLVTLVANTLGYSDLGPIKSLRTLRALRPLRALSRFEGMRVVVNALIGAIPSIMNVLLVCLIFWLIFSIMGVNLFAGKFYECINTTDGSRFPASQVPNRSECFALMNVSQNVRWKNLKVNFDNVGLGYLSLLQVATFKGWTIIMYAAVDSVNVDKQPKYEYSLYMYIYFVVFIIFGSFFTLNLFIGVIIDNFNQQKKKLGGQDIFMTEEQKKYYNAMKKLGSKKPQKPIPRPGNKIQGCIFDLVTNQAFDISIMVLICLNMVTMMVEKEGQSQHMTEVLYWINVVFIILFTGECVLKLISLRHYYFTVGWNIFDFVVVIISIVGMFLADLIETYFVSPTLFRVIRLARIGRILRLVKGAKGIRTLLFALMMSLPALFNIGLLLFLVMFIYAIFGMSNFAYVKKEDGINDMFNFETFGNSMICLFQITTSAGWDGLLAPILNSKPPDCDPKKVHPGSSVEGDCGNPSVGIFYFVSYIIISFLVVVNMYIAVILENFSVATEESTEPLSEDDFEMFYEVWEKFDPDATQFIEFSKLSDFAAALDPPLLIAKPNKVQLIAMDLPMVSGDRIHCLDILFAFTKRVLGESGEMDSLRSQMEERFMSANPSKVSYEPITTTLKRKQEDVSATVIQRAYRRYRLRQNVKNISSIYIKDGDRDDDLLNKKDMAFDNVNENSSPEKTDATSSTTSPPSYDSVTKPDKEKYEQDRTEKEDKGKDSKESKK
row,SMILES,"Nav 1.7 activity, % at 10 μM"
1,"CN(c1ccccc1)c1nc(N)nc(-c2noc(-c3cccc(Cl)c3)n2)n1 [Example 35, 6-[5-(3-Chloro-phenyl)-[1,2,4]oxadiazol-3-yl]-N-methyl-N-phenyl-[1,3,5]triazine-2,4-diamine]",44% (10 μM)^b
2,"CN(c1ccccc1)c1nc(N)nc(-c2noc(-c3ccoc3)n2)n1 [Example 37, 6-(5-Furan-3-yl-[1,2,4]oxadiazol-3-yl)-N-methyl-N-phenyl-[1,3,5]triazine-2,4-diamine]",50% (10 μM)^b

# Same assay, conditions: marker b: Manual patch clamp data; read-out: Nav 1.7 activity
row,SMILES,pIC50
1,"Nc1nc(Nc2ccccc2)nc(-c2noc(-c3ccco3)n2)n1 [Example 2, 6-(5-Furan-2-yl-[1,2,4]oxadiazol-3-yl)-N-phenyl-[1,3,5]triazine-2,4-diamine]",7.04
2,"Cc1cccc(N(C)c2nc(N)nc(-c3noc(-c4ccco4)n3)n2)c1 [Example 3, 6-(5-Furan-2-yl-[1,2,4]oxadiazol-3-yl)-N-methyl-N-(3-methylphenyl)-[1,3,5]triazine-2,4-diamine]",6.57
3,"Cc1ccc(N(C)c2nc(N)nc(-c3noc(-c4ccco4)n3)n2)cc1 [Example 4, 6-(5-Furan-2-yl-[1,2,4]oxadiazol-3-yl)-N-methyl-N-(4-methylphenyl)-[1,3,5]triazine-2,4-diamine]",6.18
4,"COc1cccc(N(C)c2nc(N)nc(-c3noc(-c4ccco4)n3)n2)c1 [Example 5, 6-(5-Furan-2-yl-[1,2,4]oxadiazol-3-yl)-N-methyl-N-(3-methoxyphenyl)-[1,3,5]triazine-2,4-diamine]",6.10
5,"COc1ccc(N(C)c2nc(N)nc(-c3noc(-c4ccco4)n3)n2)cc1 [Example 6, 6-(5-Furan-2-yl-[1,2,4]oxadiazol-3-yl)-N-methyl-N-(4-methoxyphenyl)-[1,3,5]triazine-2,4-diamine]",5.71
6,"CN(c1ccc(Cl)cc1)c1nc(N)nc(-c2noc(-c3ccco3)n2)n1 [Example 8, 6-(5-Furan-2-yl-[1,2,4]oxadiazol-3-yl)-N-methyl-N-(4-chlorophenyl)-[1,3,5]triazine-2,4-diamine]",6.47
7,"CN(c1ccccc1)c1nc(N)nc(-c2noc(-c3ccccn3)n2)n1 [Example 9, N-Methyl-N-phenyl-6-(5-pyridin-2-yl-[1,2,4]oxadiazol-3-yl)-[1,3,5]triazine-2,4-diamine]",6.11
8,"CN(c1ccccc1)c1nc(N)nc(-c2noc(-c3ccccc3)n2)n1 [Example 10, N-Methyl-N-phenyl-6-(5-phenyl-[1,2,4]oxadiazol-3-yl)-[1,3,5]triazine-2,4-diamine]",6.46
9,"CN(c1ccccc1)c1nc(N)nc(-c2noc(-c3cccs3)n2)n1 [Example 11, N-Methyl-N-phenyl-6-(5-thiophen-2-yl-[1,2,4]oxadiazol-3-yl)-[1,3,5]triazine-2,4-diamine]",6.67
10,"CN(c1ccccc1)c1nc(N)nc(-c2noc(-c3ccc(Cl)s3)n2)n1 [Example 12, N-Methyl-6-[5-(5-chloro-thiophen-2-yl)-[1,2,4]oxadiazol-3-yl]-N-phenyl-[1,3,5]triazine-2,4-diamine]",5.63
11,"CN(c1ccccc1)c1nc(N)nc(-c2noc(-c3ccc(OC4CCCC4)nc3)n2)n1 [Example 13, 6-[5-(6-Cyclopentoxy-pyridin-3-yl)-[1,2,4]oxadiazol-3-yl]-N-methyl-N-phenyl-[1,3,5]triazine-2,4-diamine]",8.40
12,"CN(c1nc(N)nc(-c2noc(-c3ccco3)n2)n1)c1ccccc1F [Example 14, N-(2-Fluoro-phenyl)-6-(5-furan-2-yl-[1,2,4]oxadiazol-3-yl)-N-methyl-[1,3,5]triazine-2,4-diamine]",6.70
13,"CN(c1cccc(F)c1)c1nc(N)nc(-c2noc(-c3ccco3)n2)n1 [Example 15, N-(3-Fluoro-phenyl)-6-(5-furan-2-yl-[1,2,4]oxadiazol-3-yl)-N-methyl-[1,3,5]triazine-2,4-diamine]",6.82
14,"CN(c1ccccc1)c1nc(N)nc(-c2noc(-c3ccccc3Cl)n2)n1 [Example 23, 6-[5-(2-Chloro-phenyl)-[1,2,4]oxadiazol-3-yl]-N-methyl-N-phenyl-[1,3,5]triazine-2,4-diamine]",6.97
15,"COc1ccccc1-c1nc(-c2nc(N)nc(N(C)c3ccccc3)n2)no1 [Example 25, 6-[5-(2-Methoxy-phenyl)-[1,2,4]oxadiazol-3-yl]-N-methyl-N-phenyl-[1,3,5]triazine-2,4-diamine]",7.33

# Results, then the compound that gave them:
row,pIC50,SMILES
1,6.83,"COc1ccc(-c2nc(-c3nc(N)nc(N(C)c4ccccc4)n3)no2)cc1 [Example 26, 6-[5-(4-Methoxy-phenyl)-[1,2,4]oxadiazol-3-yl]-N-methyl-N-phenyl-[1,3,5]triazine-2,4-diamine]"
2,6.78,"CN(c1ccccc1)c1nc(N)nc(-c2noc(-c3ccc(Cl)cc3)n2)n1 [Example 36, 6-[5-(4-Chloro-phenyl)-[1,2,4]oxadiazol-3-yl]-N-methyl-N-phenyl-[1,3,5]triazine-2,4-diamine]"
3,5.95,"CCN(c1ccccc1)c1nc(N)nc(-c2noc(-c3nccs3)n2)n1 [Example 38, N-Ethyl-N-phenyl-6-(5-thiazol-2-yl-[1,2,4]oxadiazol-3-yl)-[1,3,5]triazine-2,4-diamine]"
4,6.29,"CN(c1ccccc1)c1nc(N)nc(-c2noc(N3CCCCC3)n2)n1 [Example 46, N-Methyl-N-phenyl-6-(5-piperidin-1-yl-[1,2,4]oxadiazol-3-yl)-[1,3,5]triazine-2,4-diamine]"
5,5.33,CN(c1ccccc1)c1nc(N)nc(-c2noc(C3CCOC3)n2)n1 (stereo not shown) [Example 48]
6,6.04,"CN(c1ccccc1)c1nc(N)nc(-c2noc(-c3cncs3)n2)n1 [Example 52, N-Methyl-N-phenyl-6-(5-thiazol-5-yl-[1,2,4]oxadiazol-3-yl)-[1,3,5]triazine-2,4-diamine]"

# Biological target: T1, Nav 1.7
# Test: Whole-cell voltage clamp electrophysiology, automated patch clamp (marker c in Table of Examples)
# Format: cell-based
# Details: marker c = Automated patch clamp data; read-out: Nav 1.7 activity
# Procedure, shortened: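 Human NaV1.7 currents were recorded by whole-cell automated patch clamp, on IonWorks Quattro or another automated platform, typically in perforated-patch configuration. The stimulus protocol was designed to probe block mainly of the inactivated state, with a typical sweep stepping from about −65 mV holding to −10 mV, then −100 mV.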
row,SMILES,pIC50
1,"CN(c1ccccc1)c1nc(N)nc(-c2noc(C3CCN(S(=O)(=O)C4CCCC4)CC3)n2)n1 [Example 509, 6-{5-[1-(cyclopentanesulfonyl)piperidin-4-yl]-1,2,4-oxadiazol-3-yl}-2-N-methyl-2-N-phenyl-1,3,5-triazine-2,4-diamine]",5.96
2,"CC(C)CN1CCC(c2nc(-c3nc(N)nc(N(C)c4ccccc4)n3)no2)CC1 [Example 510, 2-N-methyl-6-{5-[1-(2-methylpropyl)piperidin-4-yl]-1,2,4-oxadiazol-3-yl}-2-N-phenyl-1,3,5-triazine-2,4-diamine]",5.90
3,"CC(C)(C)OC(=O)N1CCC(c2nc(-c3nc(N)nc(Nc4ccccc4)n3)no2)CC1 [Example 512, tert-butyl 4-{3-[4-amino-6-(phenylamino)-1,3,5-triazin-2-yl]-1,2,4-oxadiazol-5-yl}piperidine-1-carboxylate]",6.22
4,"Nc1nc(Nc2ccccc2)nc(-c2noc(C3CCN(S(=O)(=O)C4CC4)CC3)n2)n1 [Example 513, 6-{5-[1-(cyclopropanesulfonyl)piperidin-4-yl]-1,2,4-oxadiazol-3-yl}-2-N-phenyl-1,3,5-triazine-2,4-diamine]",6.20
5,"CCC(C)S(=O)(=O)N1CCC(c2nc(-c3nc(N)nc(Nc4ccccc4)n3)no2)CC1 (stereo not shown) [Example 514, 6-{5-[1-(butane-2-sulfonyl)piperidin-4-yl]-1,2,4-oxadiazol-3-yl}-2-N-phenyl-1,3,5-triazine-2,4-diamine]",5.76
6,"CC(C)S(=O)(=O)N1CCC(c2nc(-c3nc(N)nc(Nc4ccccc4)n3)no2)CC1 [Example 515, 2-N-phenyl-6-{5-[1-(propane-2-sulfonyl)piperidin-4-yl]-1,2,4-oxadiazol-3-yl}-1,3,5-triazine-2,4-diamine]",6.10
7,"Nc1nc(Nc2ccccc2)nc(-c2noc(C3CCN(S(=O)(=O)C4CCCC4)CC3)n2)n1 [Example 516, 6-{5-[1-(cyclopentanesulfonyl)piperidin-4-yl]-1,2,4-oxadiazol-3-yl}-2-N-phenyl-1,3,5-triazine2,4-diamine]",< 5.02
8,"CN(C)S(=O)(=O)N1CCC(c2nc(-c3nc(N)nc(Nc4ccccc4)n3)no2)CC1 [Example 517, 4-{3-[4-amino-6-(phenylamino)-1,3,5-triazin-2-yl]-1,2,4-oxadiazol-5-yl}-N,N-dimethylpiperidine-1-sulfonamide]",6.24
